The text below walks through data of patent US8198456B2, “Dihydropyridine derivatives as useful as protein kinase inhibitors” (Bayer Intellectual Property GmbH, priority 2006, dated 2012).

Each structure is given as a SMILES string.

The target in this experiment is T1, recombinant human c-MET kinase enzyme domain (Homo sapiens, UniProt P08581).
T1 construct: Recombinant c-Met kinase domain (amino acids 960-1390); His (N); made in house; host or cells: baculovirus expression system (insect cells; SF21 is named only for the alternative format)
T1 sequence (P08581 960-1390): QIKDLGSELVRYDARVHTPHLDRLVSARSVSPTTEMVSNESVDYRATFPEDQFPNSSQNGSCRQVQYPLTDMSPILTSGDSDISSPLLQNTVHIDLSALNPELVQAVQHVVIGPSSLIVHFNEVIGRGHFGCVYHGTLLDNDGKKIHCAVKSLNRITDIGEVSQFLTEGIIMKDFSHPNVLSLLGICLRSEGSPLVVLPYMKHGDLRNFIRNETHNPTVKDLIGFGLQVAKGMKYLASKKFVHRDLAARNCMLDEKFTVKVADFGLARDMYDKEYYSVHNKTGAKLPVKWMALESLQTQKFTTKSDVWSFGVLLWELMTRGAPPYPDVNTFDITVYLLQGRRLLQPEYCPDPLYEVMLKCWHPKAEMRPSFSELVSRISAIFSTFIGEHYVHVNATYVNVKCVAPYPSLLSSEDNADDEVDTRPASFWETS
As to the kind of experiment: c-MET receptor tyrosine kinase Homogeneous Time Resolved Fluorescence assay (HTRF). The settings on record: Biological Example 1 and/or Biological Example 2. Type of experiment: biochemical. In outline:
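His-tagged c-Met kinase domain (aa 960-1390, baculovirus) phosphorylated biotinylated poly-Glu-Tyr (37 nM) with 20 μM ATP in HEPES pH 7.4, Mg/Mn, DTT, 1% DMSO, 20 min at ambient temperature, EDTA-stopped. HTRF read (PT66-Eu/streptavidin-XL665, 665/620 nm ratio) after 4 h; IC50 from eight 1:3.16 dilutions.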
In general terms: In TR-FRET formats the signal depends on donor and acceptor labels being close together.
Turning to `COC(=O)c1cccc(C2C(C#N)=C(C)NC(c3ccc(N)cc3)=C2C#N)c1` (centres unmarked) [compound 236, 3-[2-(4-aminophenyl)-3,5-dicyano-1,4-dihydro-6-methyl-4-pyridinyl]-benzoic acid, methyl ester], the 50% inhibitory concentration (IC50) – broadly, the point on the concentration scale where inhibition reaches its midpoint – was 100 to 500 nM. For the compound `CNC(=O)c1cccc(C2C(C#N)=C(C)NC(c3ccc(N)cc3)=C2C#N)c1` (centres unmarked) [compound 238, 3-[2-(4-aminophenyl)-3,5-dicyano-1,4-dihydro-6-methyl-4-pyridinyl]-N-methyl-benzamide], the IC50 was in the range of 500 to 2500 nM.

Turning to `CNC(=O)c1cccc(C2C(C#N)=C(C)NC(c3ccc(O)cc3)=C2C#N)c1` (centres unmarked) [compound 239, 3-[3,5-dicyano-1,4-dihydro-2-(4-hydroxyphenyl)-6-methyl-4-pyridinyl]-N-methyl-benzamide], the IC50 was in the range of 500 to 2500 nM. Under `CNC(=O)c1cccc(C2C(C#N)=C(C)NC(c3ccccc3)=C2C#N)c1` (centres unmarked) [compound 240, 3-(3,5-dicyano-1,4-dihydro-2-methyl-6-phenyl-4-pyridinyl)-N-methyl-benzamide] stands 500 to 2500 nM.

With `CC1=C(C#N)C(c2cccc(C(=O)NCCCn3ccnc3)c2)C(C#N)=C(c2cccc(N)c2)N1` (centres unmarked) [compound 246, 3-[2-(3-aminophenyl)-3,5-dicyano-1,4-dihydro-6-methyl-4-pyridinyl]-N-[3-(1H-imidazol-1-yl)propyl]-benzamide], the IC50 was 100 to 500 nM. Under `CC1=C(C#N)C(c2ccc3[nH]ncc3c2)C(C#N)=C(c2ccccc2)N1` (centres unmarked) [compound 249, 1,4-dihydro-4-(1H-indazol-5-yl)-2-methyl-6-phenyl-3,5-pyridinedicarbonitrile] stands below 100 nM; under `CC1=C(C#N)C(c2ccc3[nH]ncc3c2)C(C#N)=C(c2cccc([N+](=O)[O-])c2)N1` (centres unmarked) [compound 250, 1,4-dihydro-4-(1H-indazol-5-yl)-2-methyl-6-(3-nitrophenyl)-3,5-pyridinedicarbonitrile], below 100 nM. In the case of `CC1=C(C#N)C(c2ccc3[nH]ncc3c2)C(C#N)=C(C2CCCN(C(=O)OCc3ccccc3)C2)N1` (centres unmarked) [compound 251, 3-[3,5-dicyano-1,4-dihydro-4-(1H-indazol-5-yl)-6-methyl-2-pyridinyl]-1-piperidinecarboxylic acid phenylmethyl ester], the IC50 was in the range of 500 to 2500 nM. Under `CC1=C(C#N)C(c2ccc3[nH]ncc3c2)C(C#N)=C(c2cccc(N)c2)N1` (centres unmarked) [compound 252, 2-(3-aminophenyl)-1,4-dihydro-4-(1H-indazol-5-yl)-6-methyl-3,5-pyridinedicarbonitrile] stands below 100 nM. Under `CC(=O)Nc1cccc(C2=C(C#N)C(c3ccc4[nH]ncc4c3)C(C#N)=C(C)N2)c1` (centres unmarked) [compound 253, N-[3-[3,5-dicyano-1,4-dihydro-4-(1H-indazol-5-yl)-6-methyl-2-pyridinyl]-phenyl]-acetamide] stands below 100 nM; under `CC1=C(C#N)C(c2ccc3[nH]ncc3c2)C(C#N)=C(CCN)N1` (centres unmarked) [compound 255, 2-(2-aminoethyl)-1,4-dihydro-4-(1H-indazol-5-yl)-6-methyl-3,5-pyridinedicarbonitrile], below 100 nM.

On to `COC(=O)c1ccc(C2=C(C#N)C(c3ccc4[nH]ncc4c3)C(C#N)=C(C)N2)cc1` (centres unmarked) [compound 257, 4-[3,5-dicyano-1,4-dihydro-4-(1H-indazol-5-yl)-6-methyl-2-pyridinyl]-benzoic acid methyl ester], for which the IC50 is below 100 nM. For the compound `CC1=C(C#N)C(c2ccc3[nH]ncc3c2)C(C#N)=C(c2ccc(CO)cc2)N1` (centres unmarked) [compound 258, 1,4-dihydro-2-[4-(hydroxymethyl)phenyl]-4-(1H-indazol-5-yl)-6-methyl-3,5-pyridinedicarbonitrile], the IC50 was below 100 nM. Under `CC1=C(C#N)C(c2ccc3[nH]nc(N)c3c2)C(C#N)=C(c2ccccc2)N1` (centres unmarked) [compound 259, 4-(3-amino-1H-indazol-5-yl)-1,4-dihydro-2-methyl-6-phenyl-3,5-pyridinedicarbonitrile] stands below 100 nM; under `CC1=C(C#N)C(c2ccc3[nH]ncc3c2)C(C#N)=C(c2ccc(C(=O)NCCN3CCOCC3)cc2)N1` (centres unmarked) [compound 261, 4-[3,5-dicyano-1,4-dihydro-4-(1H-indazol-5-yl)-6-methyl-2-pyridinyl]-N-[2-(4-morpholinyl)ethyl]-benzamide], below 100 nM. As to `CC1=C(C#N)C(c2ccc3[nH]nc(N)c3c2)C(C#N)=C(c2ccc(Cl)cc2)N1` (centres unmarked) [compound 264, 4-(3-amino-1H-indazol-5-yl)-2-(4-chlorophenyl)-1,4-dihydro-6-methyl-3,5-pyridinedicarbonitrile], the IC50 was below 100 nM. Under `CC1=C(C#N)C(c2ccc3[nH]ncc3c2)C(C#N)=C(c2ccncc2)N1` (centres unmarked) [compound 265, 1,4-dihydro-4-(1H-indazol-5-yl)-6-methyl-[2,4′-bipyridine]-3,5-dicarbonitrile] stands below 100 nM.

Consider `CC1=C(C#N)C(c2ccc3[nH]ncc3c2)C(C#N)=C(c2cccnc2)N1` (centres unmarked) [compound 266, 1,4-dihydro-4-(1H-indazol-5-yl)-6-methyl-[2,3′-bipyridine]-3,5-dicarbonitrile], for which the IC50 was below 100 nM.

As for `CC1=C(C#N)C(c2ccc3[nH]ncc3c2)C(C#N)=C(c2ccco2)N1` (centres unmarked) [compound 267, 2-(2-furanyl)-1,4-dihydro-4-(1H-indazol-5-yl)-6-methyl-3,5-pyridinedicarbonitrile], the IC50 was below 100 nM.

Take `CCOC(=O)C1=C(C#N)C(c2ccc3[nH]ncc3c2)C(C#N)=C(C)N1` (centres unmarked) [compound 268, 3,5-dicyano-1,4-dihydro-4-(1H-indazol-5-yl)-6-methyl-2-pyridinecarboxylic acid ethyl ester]: the IC50 is below 100 nM. Under `CCC1=C(C#N)C(c2ccc3[nH]ncc3c2)C(C#N)=C(CC)N1` [compound 269, 2,6-diethyl-1,4-dihydro-4-(1H-indazol-5-yl)-3,5-pyridinedicarbonitrile] stands below 100 nM; under `CC1=C(C#N)C(c2ccc3[nH]ncc3c2)C(C#N)=C(c2ccc(N3CCOCC3)nc2)N1` (centres unmarked) [compound 271, 1,4-dihydro-4-(1H-indazol-5-yl)-6-methyl-6′-(4-morpholinyl)-[2,3′-bipyridine]-3,5-dicarbonitrile], below 100 nM; under `CC1=C(C#N)C(c2ccc3[nH]ncc3c2)C(C#N)=C(c2ccc(N3CCOCC3)c(F)c2)N1` (centres unmarked) [compound 272, 2-[3-fluoro-4-(4-morpholinyl)phenyl]-1,4-dihydro-4-(1H-indazol-5-yl)-6-methyl-3,5-pyridinedicarbonitrile], below 100 nM. Under `CC1=C(C#N)C(c2ccc3[nH]ncc3c2)C(C#N)=C(c2ccc(N(C)CCO)nc2)N1` (centres unmarked) [compound 273, 1,4-dihydro-6′-[(2-hydroxyethyl)methylamino]-4-(1H-indazol-5-yl)-6-methyl-[2,3′-bipyridine]-3,5-dicarbonitrile] stands below 100 nM; under `CC1=C(C#N)C(c2ccc3[nH]ncc3c2)C(C#N)=C(c2ccc(NCCN3CCOCC3)nc2)N1` (centres unmarked) [compound 274, 1,4-dihydro-4-(1H-indazol-5-yl)-6-methyl-6′-[[2-(4-morpholinyl)ethyl]amino]-[2,3′-bipyridine]-3,5-dicarbonitrile], below 100 nM; under `CC1=C(C#N)C(c2ccc3[nH]ncc3c2)C(C#N)=C(c2ccc(NCCN(C)C)nc2)N1` (centres unmarked) [compound 275], below 100 nM. For `CC1=C(C#N)C(c2ccc3[nH]ncc3c2)C(C#N)=C(c2ccnc(Cl)c2)N1` (centres unmarked) [compound 276, 2′-chloro-1,4-dihydro-4-(1H-indazol-5-yl)-6-methyl-[2,4′-bipyridine]-3,5-dicarbonitrile], the IC50 is below 100 nM. Under `CC1=C(C#N)C(c2ccc3[nH]ncc3c2)C(C#N)=C(c2ccnc(NCCN3CCOCC3)c2)N1` (centres unmarked) [compound 278, 1,4-dihydro-4-(1H-indazol-5-yl)-6-methyl-2′-[[2-(4-morpholinyl)ethyl]amino]-[2,4′-bipyridine]-3,5-dicarbonitrile] stands below 100 nM; under `CC1=C(C#N)C(c2ccc3[nH]nc(N)c3c2)C(C#N)=C(c2cc(C)oc2C)N1` (centres unmarked) [compound 281, 4-(3-amino-1H-indazol-5-yl)-2-(2,5-dimethyl-3-furanyl)-1,4-dihydro-6-methyl-3,5-pyridinedicarbonitrile], below 100 nM; under `CC1=C(C#N)C(c2ccc3[nH]nc(N)c3c2)C(C#N)=C(c2ccoc2C)N1` (centres unmarked) [compound 282, 4-(3-amino-1H-indazol-5-yl)-1,4-dihydro-2-methyl-6-(2-methyl-3-furanyl)-3,5-pyridinedicarbonitrile], below 100 nM. Under `COC(=O)c1cccc(C2C(C#N)=C(C)N(C)C(C)=C2C#N)c1` [compound 284, 3-(3,5-dicyano-1,4-dihydro-1,2,6-trimethyl-4-pyridinyl)-benzoic acid, methyl ester] stands 500 to 2500 nM. `CC1=C(C#N)C(c2ccc3[nH]nc(N)c3c2)C(C#N)=C(C)N1C` [compound 288, 4-(3-amino-1H-indazol-5-yl)-1,4-dihydro-1,2,6-trimethyl-3,5-pyridinedicarbonitrile]: the IC50 was below 100 nM. Under `CC1=C(C#N)C(c2ccc3[nH]ncc3c2)C(C#N)=C(C)N1C` [compound 289, 1,4-dihydro-4-(1H-indazol-5-yl)-1,2,6-trimethyl-3,5-pyridinedicarbonitrile] stands below 100 nM; under `CCOC(=O)CN1C(C)=C(C#N)C(c2ccc3[nH]ncc3c2)C(C#N)=C1C` [compound 290, 3,5-dicyano-4-(1H-indazol-5-yl)-2,6-dimethyl-1(4H)-pyridineacetic acid ethyl ester], below 100 nM.

Take `CC1=C(C#N)C(c2ccc3[nH]ncc3c2)C(C#N)=C(C)N1CCO` [compound 292, 1,4-dihydro-1-(2-hydroxyethyl)-4-(1H-indazol-5-yl)-2,6-dimethyl-3,5-pyridinedicarbonitrile]: the IC50 was below 100 nM.
